The text below walks through data of PubChem BioAssay (NCI).

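A five-concentration, 48-hour dose response in 96-well plates underlies each endpoint, interpolated linearly between surrounding concentrations. GI50 marks 50% less growth. The concentration for full growth arrest is given as TGI.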

Common to all, as to assay: growth of human tumour cells (NCI), 48 h
The subject of experiment [1] is A549 NSCLC.
Experiment [2] concerns CAKI-1 renal.
The test system of experiment [3] is HCT-116 colon.
Experiment [4] has as its system IGROV1 ovarian.
For experiment [5], the system named is K-562 leukemia.
In experiment [6] the test system is MDA-MB-231 breast.
Experiment [7] relates to NCI-H522 lung.
Experiment [8] relates to OVCAR-4 ovarian.

Regarding `CCOP1(=O)OCC2OC(n3cnc4c(N)ncnc43)C(O)C2O1` (centres undefined), the TGI in experiment [1], in experiment [2], in experiment [3], in experiment [4], in experiment [5] and in experiment [6] was more than 100 µM each time. For the same molecule, the TGI in experiment [7] and in experiment [8] was more than 100 µM throughout.

For the molecule `CC1(CCCC2(C)CCNC2=O)OCCO1` (centres undefined), the TGI in experiment [1], in experiment [2], in experiment [3], in experiment [4], in experiment [5] and in experiment [6] was more than 10 µM each time. Also, in experiment [8], the TGI is more than 10 µM.

Take `O=C(Cn1ccnc1[N+](=O)[O-])NCCO`: the TGI in experiment [1], in experiment [2], in experiment [3], in experiment [4], in experiment [5] and in experiment [6] was more than 100 µM throughout. The TGI in experiment [7] and in experiment [8] was more than 100 µM each time.

`CCc1cc(C(N)=O)ccc1-n1nc(C(C)C)c2c(-n3cnc(-c4cnn(C)c4)c3)ccnc21`: the GI50 was 2180 nM in experiment [1]; 5.61 µM in experiment [2]; 554 nM in experiment [3]; 4150 nM in experiment [4]; 867 nM in experiment [5]; 3.25 µM in experiment [6]. In addition, the GI50 in experiment [7] was 1470 nM; in experiment [8] it was 6.24 µM. The TGI in experiment [1], in experiment [2], in experiment [3], in experiment [4], in experiment [5] and in experiment [6] was more than 100 µM each time. Moreover, the TGI in experiment [7] and in experiment [8] was more than 100 µM each time.

Regarding `COc1ccc(C(=O)/C=C/c2ccc(Cl)cc2)cc1S(N)(=O)=O`, the GI50 is 2690 nM in experiment [1]; 2.72 µM in experiment [2]; 1360 nM in experiment [3]; 2670 nM in experiment [4]; 568 nM in experiment [5]; 3.48 µM in experiment [6]. For the same molecule, the GI50 in experiment [7] was 1930 nM; in experiment [8] it was 3.46 µM. In addition, the TGI in experiment [1] is 8.15 µM; in experiment [2], 10.6 µM; in experiment [3], 2.7 µM; in experiment [4], 8.34 µM; in experiment [5] it was more than 100 µM; in experiment [6], 11.7 µM. For the same molecule, the TGI in experiment [7] turned out to be 4.51 µM; in experiment [8], 12.6 µM.

Turning to `CCN(CC)CCn1c(=N)n(CC(O)c2ccc(Cl)c(Cl)c2)c2ccccc21` (centres undefined), the GI50 in experiment [2] was 11.8 µM; in experiment [3], 4470 nM; in experiment [4], 5870 nM; in experiment [5] it was 2330 nM; in experiment [6], 5.16 µM; in experiment [8], 10.6 µM. The TGI in experiment [2] is 25.1 µM; in experiment [3], 16.4 µM; in experiment [4], 20.6 µM; in experiment [5], 6.36 µM; in experiment [6], 20.2 µM; in experiment [8], 24.3 µM.

For the molecule `CC(C)Oc1cc(OCC(=O)O)cc(C(=O)N(CCC(N)=O)C(=O)Nc2ccc(C(=O)O)cc2OC(C)C)c1`, the GI50 in experiment [1] is more than 100000 nM; in experiment [3], more than 100000 nM; in experiment [4], more than 100000 nM; in experiment [5] it was more than 100000 nM; in experiment [6], more than 100 µM; in experiment [7] it was more than 100000 nM. The GI50 in experiment [8] is more than 100 µM. For the same molecule, the TGI in experiment [1], in experiment [3], in experiment [4], in experiment [5], in experiment [6] and in experiment [7] was more than 100 µM in each case. This molecule also displayed a TGI in experiment [8] of more than 100 µM.

Consider `COC1CC(OC2OC(CO)C(O)C(O)C2O)/C(=C\C#N)C(O)C1OC` (centres undefined), for which the TGI in experiment [1], in experiment [2], in experiment [3], in experiment [4], in experiment [6] and in experiment [7] was more than 100 µM each time. This molecule showed a TGI in experiment [8] of more than 100 µM.

For the molecule `CC(=O)NC1(C)CCC(C(C)(C)NC(C)=O)CC1` (centres undefined), the TGI in experiment [1], in experiment [2], in experiment [3], in experiment [4], in experiment [5] and in experiment [6] was more than 100 µM each time. In experiment [8], this molecule returned a TGI of more than 100 µM.

Regarding `COc1ccc(C2SC(N)=Nc3c2c(C)nn3C(=O)c2ccncc2)cc1` (centres undefined), the TGI in experiment [1], in experiment [3], in experiment [4], in experiment [5], in experiment [6] and in experiment [8] was more than 100 µM throughout.

With `O=C(Nc1ccc(Cl)c(Cl)c1)Nc1ccc(Cl)c([N+](=O)[O-])c1`, the GI50 was 1410 nM in experiment [1]; 813 nM in experiment [3]; 1610 nM in experiment [4]; 1060 nM in experiment [5]; 2.93 µM in experiment [6]; 996 nM in experiment [7]. The GI50 in experiment [8] is 0.768 µM. Besides, the TGI in experiment [1] turned out to be 8.27 µM; in experiment [3] it was 3.18 µM; in experiment [4] it was 6.4 µM; in experiment [5], 19 µM; in experiment [6] it was 7.09 µM; in experiment [7], 4.9 µM. This molecule gave a TGI in experiment [8] of 8.01 µM.

As to `CC/C(=C(\c1ccccc1)c1ccc(OCCN(C)C)cc1)c1ccccc1`, the GI50 in experiment [1] is 2930 nM; in experiment [2], 3.42 µM; in experiment [3], 2250 nM; in experiment [4], 4440 nM; in experiment [5], 1840 nM; in experiment [6] it was 3.59 µM. The GI50 in experiment [7] was 1420 nM.

In the case of `O=C1CCC/C=C\C[C@H]2C=C(Cl)C(=O)/C2=C/C[C@H](CCCCC(F)(F)F)OC(=O)CCC/C=C\C[C@H]2C=C(Cl)C(=O)/C2=C/C[C@H](CCCCC(F)(F)F)O1`, the GI50 in experiment [1] was 429 nM; in experiment [3] it was 157 nM; in experiment [4] it was 231 nM; in experiment [5] it was 184 nM; in experiment [6], 0.194 µM; in experiment [7], 166 nM. The GI50 in experiment [8] is 0.24 µM. For the same molecule, the TGI in experiment [1] came out at 2.61 µM; in experiment [3], 0.43 µM; in experiment [4], 0.791 µM; in experiment [5] it was 7.5 µM; in experiment [6] it was 0.504 µM; in experiment [7], 0.384 µM. In experiment [8], the TGI worked out at 3.93 µM.

`Cc1c2c(n3c(nc4ccccc43)c1C#N)SCC2`: the TGI in experiment [1], in experiment [2], in experiment [3], in experiment [4], in experiment [5] and in experiment [6] was more than 10 µM in each case. Besides, the TGI in experiment [8] is more than 10 µM.

In the case of `CCOC(=O)c1cc2c(n1Cc1cccc(OC)c1)-c1oncc1CC2`, the GI50 in experiment [1] was 9420 nM; in experiment [3], 470 nM; in experiment [4] it was 780 nM; in experiment [5], 343 nM; in experiment [6] it was 4.87 µM; in experiment [7] it was 237 nM. Also, the GI50 in experiment [8] was 9.6 µM. Besides, the TGI in experiment [1] is more than 100 µM; in experiment [3], 19.9 µM; in experiment [4], more than 100 µM; in experiment [5], more than 100 µM; in experiment [6] it was more than 100 µM; in experiment [7], 1.42 µM. This molecule also had a TGI in experiment [8] of more than 100 µM.

Turning to `CC(=O)O[C@@H]1C=CC(=O)C2(CC(=O)O[C@@H]2/C=C(\C)CCC=C(C)C)C1` (some centres undefined), the GI50 in experiment [1] was 2040 nM; in experiment [2], 0.744 µM; in experiment [3], 399 nM; in experiment [4], 965 nM; in experiment [5], 449 nM; in experiment [6] it was 0.405 µM. Further, in experiment [7], the GI50 is 988 nM. Moreover, the TGI in experiment [1] was found to be 4.91 µM; in experiment [2], 2.3 µM; in experiment [3], 1.71 µM; in experiment [4] it was 2.47 µM; in experiment [6], 1.33 µM.

With `COc1ccc(CCNc2nc3ccccc3c3[nH]c4ccccc4c23)cc1OC`, the GI50 in experiment [1] is 2660 nM; in experiment [2], 11.4 µM; in experiment [3] it was 1710 nM; in experiment [5], 2450 nM; in experiment [6], 2.21 µM; in experiment [8] it was 3.15 µM. Besides, the TGI in experiment [1] came to 8.24 µM; in experiment [2] it was 24.8 µM; in experiment [3], 3.52 µM; in experiment [5], 10.2 µM; in experiment [6], 8.03 µM; in experiment [8], 12.8 µM.

For the molecule `C1=C[C@@H]2c3ccc4cnccc4c3NC[C@@H]2C1`, the TGI in experiment [1], in experiment [3], in experiment [4] and in experiment [5] was more than 100 µM throughout.

As to `COc1ccc([C@H]2c3cc(OC)c(OC)cc3C=C(C=O)C2CO)cc1OC` (some centres undefined), the GI50 in experiment [1] is 52500 nM; in experiment [2], 3.02 µM; in experiment [3], 5320 nM; in experiment [4], 2080 nM; in experiment [5], 6030 nM; in experiment [6] it was 6.74 µM. Further, the GI50 in experiment [8] was 7.94 µM. The TGI was more than 100 µM in experiment [1]; more than 100 µM in experiment [2]; more than 100 µM in experiment [3]; 8.89 µM in experiment [4]; more than 100 µM in experiment [5]; more than 100 µM in experiment [6]. Further, the TGI in experiment [8] is more than 100 µM.
